Reference: patent publication US20090269795A1, “Mutant alpha4betadelta GABAA receptor and methods of treating anxiety or irritability” (priority 2007, published 2009)

How the values were obtained:
Conditions in all cases: 30 nM THP
[1] = molecular target: T1, α4(R353K)β2δ GABAA receptors (UniProt P63138+Q9D6F4, R389K); assay: Patch clamp of GABA-gated current at mutated receptors in HEK-293 cells; assay type: cell-based, mouse α4
T1 construct: expressed in transfected cells; host or cells: HEK-293
Description: (§1) Whole cell patch clamp recording—GABA-gated currents were recorded at room temperature (20-22° C.) at a holding potential of −50 mV^14. The pipet solution contained (in mM): N-methyl-D-glucamine chloride 120, Cs4BAPTA 5 (Calbiochem), Mg-ATP 5, and an ATP regeneration system (20 mM Tris phosphocreatine and creatine kinase). Internal [Cl^−] or the holding potential were varied, using gluconate as the anion, to alter the direction of Cl^− flow, corrected for the junction potential. In some cases, current-voltage curves were constructed using the peak current response to agonist or agonist+THP across a range of holding potentials (−60 to +60) applied as 10 mV steps, or as a voltage ramp. […] Traces are presented as the average of 3 traces after subtraction of the leak current. […] This rapid application technique yields currents with a rapid rise phase. THP was also bath applied 30 s prior to tests of steroid effects. Currents were recorded using an Axopatch 1D amplifier (Axon Instruments) filtered at 2 kHz (four-pole Bessel filter) and detected at 10 kHz (pClamp 5.1). Analysis of peak current was accomplished with pClamp 9.2 and Origin software (Microcal).
(§2) Mutagenesis: Site-directed mutations were made using the Quik-Change Mutagenesis Kit I or II (Stratagene Inc., La Jolla, Calif.). Numbering of mutated residues was based on the distance from arginine 99^19. Successful mutations were verified with double-stranded sequencing of end-products (Genewiz Inc., North Brunswick, N.J.).
(§3) Recombinant receptors: Human embryonic kidney (HEK)-293 cells were transfected with α4 β2δ or other indicated subunit combinations (see Supplementary Methods) and co-transfected with enhanced green fluorescent protein for visualization. GABA-gated currents were recorded at room temperature (20-22° C.) at a holding potential of −50 mV^17 using a pipet solution containing 120 mM: N-methyl-D-glucamine chloride. Internal [Cl^−] or the holding potential were varied to alter the direction of Cl^− flow. […] Currents were recorded using an Axopatch 1D amplifier (Axon Instruments) filtered at 2 kHz (four-pole Bessel filter), detected at 10 kHz and analyzed with pClamp 9.2. Desensitization rate was determined using non-linear curve-fitting routines (Origin, Microcal; see next section).

[2] = tested on: α4β2δ GABAA receptors with α4 mutations R351Q, K352Q, K316Q, R317Q and K318Q; assay: as above; assay type: cell-based, mouse α4
Description: as §1, §2, §3

[3] = molecular target: T2, α4[R353Q]β2δ GABAA receptors (UniProt P63138+Q9D6F4, R389Q); assay: as above; assay type: cell-based, mouse α4
T2 construct: expressed in transfected cells; host or cells: HEK-293
Description: as §1, §2, §3

[4] = molecular target: T3, α4(R353C)β2δ GABAA receptors (UniProt P63138+Q9D6F4, R389C); assay: as above; assay type: cell-based, mouse α4
T3 construct: expressed in transfected cells; host or cells: HEK-293
Description: as §1, §2, §3

[5] = tested on: α4β3δ receptors; assay: Whole cell patch clamp of GABA-gated current, recombinant receptors in HEK-293 cells; assay type: cell-based, human or mouse α4, rat β3, human δ
Source text: Recombinant receptors: Transfection—Plasmids obtained from S. Vicini (rat α1, α5, β2, β3 and γ2), P. Whiting (human α4 and δ) and N. L. Harrison (mouse α4) were propagated in E coli DH5α and prepared using Qiagen Maxi- or Midi-prep kits. (Rat, mouse and human α1, β2, β3 and γ2 subunits are identical or nearly identical.) All receptors were transfected at a 1:1:1 ratio, except α1β2γ2 (1:1:5)^12, α4βδ (5:1:5)^13 and α4β2γ2 (5:1:1). HEK-293 cells were maintained in medium (DMEM:Ham's F-12 1:1) supplemented with 10% fetal calf serum at 37° C. in a humid 5% CO2 atmosphere. Cells were transfected using calcium phosphate or Polyfect (Qiagen) and co-transfected with enhanced green fluorescent protein (ratio of DNA to eGFP was 6:1 or 10:1 depending on the DNA concentration) for visualization. α4-containing GABAA receptors required 2-3 d for maximal levels of expression; all other receptors were recorded 1-2 d after transfection. Because mouse α4 and human α4-containing receptors yielded the same results, the currents were averaged together.
Whole cell patch clamp recording—GABA-gated currents were recorded at room temperature (20-22° C.) at a holding potential of −50 mV^14. […] Currents were recorded using an Axopatch 1D amplifier (Axon Instruments) filtered at 2 kHz (four-pole Bessel filter) and detected at 10 kHz (pClamp 5.1). […]

Q: For `CC(=O)[C@H]1CC[C@H]2[C@@H]3CC[C@H]4C[C@H](O)CC[C@]4(C)[C@H]3CC[C@]12C` [THP, 3α-OH-5α[β]-pregnan-20-one], which “THP inhibition of outward current at mutant receptor” value [1] is on record?
A: did not prevent THP inhibition of outward current

Q: What about the “effect of mutation on THP inhibition of outward current” value [2] of the same compound?
A: had no effect

Q: What about the “effect on inward current” value [3] of the same compound?
A: increased inward current

Q: And the “steroid-induced reduction in outward current at mutant receptor” value ([3]; R353Q)?
A: prevented the steroid-induced reduction in outward current

Q: And the “steroid-induced reduction in outward current at mutant receptor” value [4]?
A: prevented the steroid-induced reduction in outward current

Q: What about the “effect on outward current” value [5] of the same compound?
A: either increased or had no effect
